Holding throughout (assay type): in vivo
The test system of assay [1] is Cabbage Looper (Trichoplusia ni, TRIPNI). Briefly: Bioassay on Cabbage Looper (CL), 128-well diet tray assay. Conditions: Trichoplusia ni; Species CL (Cabbage Looper); read-out: CL (Biological Results, rating). The method in brief:
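Percent mortality, averaged across eight replicate wells, was scored after five to seven days at 25° C. under a 14:10 light-dark cycle. Each well held one to five second instar larvae on artificial diet treated at 50 μg/cm^2 with compound from 90:10 acetone-water, allowed to dry before infestation.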

Assay [2] concerns Beet Armyworm (Spodoptera exigua, LAPHEG). Briefly: Bioassay on Beet Armyworm (BAW), 128-well diet tray assay. The following applies: Species BAW (Beet Armyworm), read-out: BAW (Biological Results, rating). The method in brief:
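Second-instar larvae, one to five per well, placed on artificial diet surface-treated with 50 μg/cm^2 compound applied in 90:10 acetone-water and dried. Held 5–7 days at 25° C., 14:10 light-dark. Percent mortality recorded per well and averaged over eight wells.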

Assay [3] relates to Yellow Fever Mosquito (Aedes aegypti, AEDSAE). The experiment in a line: Bioassay on Yellow Fever Mosquito (YFM), 96-well plate larval assay. The following applies: Species YFM (Yellow Fever Mosquito). The method in brief: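 Aedes aegypti larvae (about 1 day old) in liver-powder water were added to plates dispensed from DMSO master plates (4000 ppm stock) diluted with 90:10 water/acetone; six replicate plates per master. Lidded plates were held at room temperature for 3 days, then each well was scored for mortality.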

On to `O=C(Nc1ccc(F)cc1F)c1cc(NC(=O)[C@H]2[C@H](c3ccc(C(F)(F)F)c(F)c3)C2(Cl)Cl)ccc1Cl` (relative stereo) [F347, 2-Chloro-5-(trans)-(2,2-dichloro-3-(3-fluoro-4-(trifluoromethyl)phenyl)cyclopropane-1-carboxamido)-N-(2,4-difluorophenyl)benzamide], for which the pest or weed control at 50 µg/cm2 in assay [1] and in assay [2] was 50 to 100% each time. The “YFM (Biological Results, rating)” value in assay [3] is recorded as “A (80-100)”.
With `O=C(Nc1ccc(F)cc1[N+](=O)[O-])c1cc(NC(=O)[C@H]2[C@H](c3cc(Cl)cc(Cl)c3)C2(Cl)Cl)ccc1Cl` (relative stereo) [F348, trans-2-Chloro-5-(2,2-dichloro-3-(3,5-dichlorophenyl)cyclopropane-1-carboxamido)-N-(4-fluoro-2-nitrophenyl)benzamide], the pest or weed control at 50 µg/cm2 in assay [1] and in assay [2] was 50 to 100% in each case. The “YFM (Biological Results, rating)” value in assay [3] is “A (80-100)”.
Take `C=Cc1cc([C@H]2[C@H](C(=O)Nc3ccc(Cl)c(C(=O)Nc4ccc(F)cc4)c3)C2(Cl)Cl)ccc1Cl` (relative stereo) [F349, 2-Chloro-5-(trans-2,2-dichloro-3-(4-chloro-3-vinylphenyl)cyclopropane-1-carboxamido)-N-(4-fluorophenyl)benzamide]: the pest or weed control at 50 µg/cm2 in assay [1] and in assay [2] was 50 to 100% in each case. In addition, the “YFM (Biological Results, rating)” value in assay [3] is “A (80-100)”.
On to `C=Cc1cc(Cl)cc([C@H]2[C@H](C(=O)Nc3ccc(Cl)c(C(=O)Nc4ccc(F)cc4)c3)C2(Cl)Cl)c1` (relative stereo) [F350, 2-Chloro-5-(trans-2,2-dichloro-3-(3-chloro-5-vinylphenyl)cyclopropane-1-carboxamido)-N-(4-fluorophenyl)benzamide], for which the pest or weed control at 50 µg/cm2 in assay [1] and in assay [2] was 50 to 100% each time. For the same compound, in assay [3], the “YFM (Biological Results, rating)” value was “A (80-100)”.
On to `C=Cc1cc([C@H]2[C@H](C(=O)Nc3ccc(Cl)c(C(=O)Nc4ccc(F)cc4F)c3)C2(Cl)Cl)ccc1Cl` (relative stereo) [F351, 2-Chloro-5-(trans-2,2-dichloro-3-(4-chloro-3-vinylphenyl)cyclopropane-1-carboxamido)-N-(2,4-difluorophenyl)benzamide], for which the pest or weed control at 50 µg/cm2 in assay [1] and in assay [2] was 50 to 100% throughout. The “YFM (Biological Results, rating)” value in assay [3] is “A (80-100)”.
For `C=Cc1cc(Cl)cc([C@H]2[C@H](C(=O)Nc3ccc(Cl)c(C(=O)Nc4ccc(F)cc4F)c3)C2(Cl)Cl)c1` (relative stereo) [F352, 2-Chloro-5-(trans-2,2-dichloro-3-(3-chloro-5-vinylphenyl)cyclopropane-1-carboxamido)-N-(2,4-difluorophenyl)benzamide], the pest or weed control at 50 µg/cm2 in assay [1] and in assay [2] was 50 to 100% each time. Further, the “YFM (Biological Results, rating)” value in assay [3] is reported as “A (80-100)”.
Regarding `C=Cc1ccc([C@H]2[C@H](C(=O)Nc3ccc(Cl)c(C(=O)Nc4ccc(F)c(N)c4F)c3)C2(Cl)Cl)cc1Cl` (relative stereo) [F355, N-(3-Amino-2,4-difluorophenyl)-2-chloro-5-(trans-2,2-dichloro-3-(3-chloro-4-vinylphenyl)cyclopropane-1-carboxamido)benzamide], the pest or weed control at 50 µg/cm2 in assay [1] and in assay [2] was 50 to 100% each time. In assay [3], the “YFM (Biological Results, rating)” value is reported as “A (80-100)”.
As to `C=Cc1cc(Cl)cc([C@H]2[C@H](C(=O)Nc3ccc(Cl)c(C(=O)Nc4ccc(F)c(N)c4F)c3)C2(Cl)Cl)c1` (relative stereo) [F356, N-(3-Amino-2,4-difluorophenyl)-2-chloro-5-(trans-2,2-dichloro-3-(3-chloro-5-vinylphenyl)cyclopropane-1-carboxamido)benzamide], the pest or weed control at 50 µg/cm2 in assay [1] and in assay [2] was 50 to 100% each time. Also, the “YFM (Biological Results, rating)” value in assay [3] was “A (80-100)”.
Regarding `O=C(Nc1ccc(Br)c(F)n1)c1cc(NC(=O)[C@H]2[C@H](c3cc(Cl)cc(Cl)c3)C2(Cl)Cl)ccc1Cl` (relative stereo) [F357, N-(5-Bromo-6-fluoropyridin-2-yl)-2-chloro-5-(trans-2,2-dichloro-3-(3,5-dichlorophenyl)cyclopropane-1-carboxamido)benzamide], the pest or weed control at 50 µg/cm2 in assay [1] and in assay [2] was 50 to 100% in each case. Besides, in assay [3], the “YFM (Biological Results, rating)” value was “A (80-100)”.
For `Nc1cc(F)ccc1NC(=O)c1cc(NC(=O)[C@H]2[C@H](c3cc(Cl)cc(Cl)c3)C2(Cl)Cl)ccc1Cl` (relative stereo) [F361, trans-N-(2-amino-4-fluorophenyl)-2-chloro-5-(2,2-dichloro-3-(3,5-dichlorophenyl)cyclopropane-1-carboxamido)benzamide], the pest or weed control at 50 µg/cm2 in assay [1] and in assay [2] was 50 to 100% in each case. For the same compound, the “YFM (Biological Results, rating)” value in assay [3] is given as “A (80-100)”.
For the compound `O=C(Nc1ccc(F)cc1F)c1cc(NC(=O)[C@H]2[C@H](c3ccc(Br)c(F)c3)C2(Cl)Cl)ccc1Cl` (relative stereo) [F364, 5-(trans)-(3-(4-Bromo-3-fluorophenyl)-2,2-dichlorocyclopropane-1-carboxamido)-2-chloro-N-(2,4-difluorophenyl)benzamide], the pest or weed control at 50 µg/cm2 in assay [1] and in assay [2] was 50 to 100% throughout. The “YFM (Biological Results, rating)” value in assay [3] is reported as “A (80-100)”.
Consider `O=C(Nc1ccc(F)cc1F)c1cc(NC(=O)[C@H]2[C@H](c3ccc(C(F)(F)F)c(Br)c3)C2(Cl)Cl)ccc1Cl` (relative stereo) [F365, 5-(trans)-(3-(3-Bromo-4-(trifluoromethyl)phenyl)-2,2-dichlorocyclopropane-1-carboxamido)-2-chloro-N-(2,4-difluorophenyl)benzamide], for which the pest or weed control at 50 µg/cm2 in assay [1] and in assay [2] was 50 to 100% in each case. For the same compound, the “YFM (Biological Results, rating)” value in assay [3] is listed as “A (80-100)”.
On to `O=C(Nc1ccc(F)cc1F)c1cc(NC(=O)[C@H]2[C@H](c3ccc(Br)c(C(F)(F)F)c3)C2(Cl)Cl)ccc1Cl` (relative stereo) [F366, 5-(trans)-(3-(4-Bromo-3-(trifluoromethyl)phenyl)-2,2-dichlorocyclopropane-1-carboxamido)-2-chloro-N-(2,4-difluorophenyl)benzamide], for which the pest or weed control at 50 µg/cm2 in assay [1] and in assay [2] was 50 to 100% each time. The “YFM (Biological Results, rating)” value in assay [3] is “A (80-100)”.
For `O=C(Nc1ccc(F)cc1F)c1cc(NC(=O)[C@H]2[C@H](c3ccc(C(F)(F)F)c(Cl)c3)C2(Cl)Cl)ccc1Cl` (relative stereo) [F367, 2-Chloro-5-(trans)-(2,2-dichloro-3-(3-chloro-4-(trifluoromethyl)phenyl)cyclopropane-1-carboxamido)-N-(2,4-difluorophenyl)benzamide], the pest or weed control at 50 µg/cm2 in assay [1] and in assay [2] was 50 to 100% throughout. Moreover, in assay [3], the “YFM (Biological Results, rating)” value is “A (80-100)”.

The values are drawn from patent US10219516B2, “Molecules having pesticidal utility, and intermediates, compositions, and processes, related thereto” (priority 2015, dated 2019).
